Like-named read-outs stand apart in the source and are kept apart here.
Key:
rat mGlu2 receptor = rat mGlu2 receptor (Rattus norvegicus (Rat), UniProt P31421); experiment: mGlu2 in vitro GIRK thallium flux assay; assay type: cell-based; settings: NAM, EC80 glutamate, HEK-293 GIRK cells
Procedure, shortened: (§1)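 Cells expressing rat mGlu2 or mGlu3 with GIRK, plated overnight at 37 °C. Test compounds (0.3% DMSO, 10-point 1:3 series) preincubated 2.5 or 60 min, then thallium buffer plus EC80 glutamate added. Fluorescence slope 5–15 s after addition, normalised to vehicle and maximal agonist, fitted by four-parameter logistic.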

rat mGlu3 receptor = rat mGlu3 receptor (Rattus norvegicus (Rat), UniProt P31422); experiment: mGlu3 in vitro GIRK thallium flux assay; assay type: cell-based; settings: NAM; 2.5 min compound incubation; EC80 glutamate; HEK-293 GIRK cells
Procedure, shortened: as §1

[1] = 2.5 min compound incubation, read-out: mGlu2 EC50 (μM) (2.5 min)
[2] = mGlu2 EC50 (μM) (60 min), 60 min compound incubation
[3] = read-out: mGlu2 EC50 (μM) (60 min), 60 min compound incubation

rat mGlu3 receptor, sequence (P31422 23-879): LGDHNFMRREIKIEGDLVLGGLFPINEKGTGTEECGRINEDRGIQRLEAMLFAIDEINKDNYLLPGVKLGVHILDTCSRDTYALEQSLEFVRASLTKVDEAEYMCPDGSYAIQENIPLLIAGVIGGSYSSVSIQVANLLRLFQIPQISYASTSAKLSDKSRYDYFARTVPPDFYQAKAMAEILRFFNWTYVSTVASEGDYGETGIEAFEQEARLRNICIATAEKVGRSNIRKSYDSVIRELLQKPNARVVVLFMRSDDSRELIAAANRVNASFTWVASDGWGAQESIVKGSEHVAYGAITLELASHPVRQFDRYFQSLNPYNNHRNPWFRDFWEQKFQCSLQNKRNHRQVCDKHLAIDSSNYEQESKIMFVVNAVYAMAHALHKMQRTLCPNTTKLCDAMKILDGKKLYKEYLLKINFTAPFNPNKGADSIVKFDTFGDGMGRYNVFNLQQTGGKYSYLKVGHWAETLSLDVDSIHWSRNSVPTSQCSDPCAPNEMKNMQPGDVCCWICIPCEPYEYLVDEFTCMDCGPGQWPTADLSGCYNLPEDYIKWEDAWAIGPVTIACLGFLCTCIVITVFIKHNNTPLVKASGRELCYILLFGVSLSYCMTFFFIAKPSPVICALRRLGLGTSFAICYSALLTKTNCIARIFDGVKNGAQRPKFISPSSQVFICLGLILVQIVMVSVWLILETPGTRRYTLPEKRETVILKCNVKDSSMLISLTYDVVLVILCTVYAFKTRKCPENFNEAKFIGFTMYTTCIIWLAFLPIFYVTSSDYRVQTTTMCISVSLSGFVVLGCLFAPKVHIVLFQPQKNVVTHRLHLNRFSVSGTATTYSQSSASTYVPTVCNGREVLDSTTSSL
rat mGlu2 receptor, sequence (P31421 19-872): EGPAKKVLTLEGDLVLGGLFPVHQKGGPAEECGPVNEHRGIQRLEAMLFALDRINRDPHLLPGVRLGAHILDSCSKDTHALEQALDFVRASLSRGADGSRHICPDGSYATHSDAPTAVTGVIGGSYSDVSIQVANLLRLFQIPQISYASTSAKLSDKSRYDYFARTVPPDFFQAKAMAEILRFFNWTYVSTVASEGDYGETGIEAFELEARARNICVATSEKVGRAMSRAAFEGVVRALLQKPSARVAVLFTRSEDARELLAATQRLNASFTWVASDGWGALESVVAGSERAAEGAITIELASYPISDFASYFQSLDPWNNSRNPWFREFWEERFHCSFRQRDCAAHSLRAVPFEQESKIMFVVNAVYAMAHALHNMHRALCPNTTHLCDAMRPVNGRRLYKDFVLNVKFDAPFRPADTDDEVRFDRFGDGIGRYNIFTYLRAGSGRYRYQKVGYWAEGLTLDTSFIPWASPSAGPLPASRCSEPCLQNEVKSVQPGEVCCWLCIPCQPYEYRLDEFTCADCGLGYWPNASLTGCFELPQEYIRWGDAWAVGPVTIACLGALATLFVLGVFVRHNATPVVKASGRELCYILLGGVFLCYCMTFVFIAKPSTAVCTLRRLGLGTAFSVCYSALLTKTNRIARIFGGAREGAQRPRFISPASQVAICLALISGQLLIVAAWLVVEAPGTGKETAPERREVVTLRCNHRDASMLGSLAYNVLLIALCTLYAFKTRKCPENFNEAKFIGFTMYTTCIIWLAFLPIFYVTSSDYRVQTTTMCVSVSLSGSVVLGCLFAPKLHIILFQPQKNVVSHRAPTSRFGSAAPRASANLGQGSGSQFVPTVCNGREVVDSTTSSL

Row | EC50 (rat mGlu2 receptor; [2]) | Structure (SMILES) | EC50 (rat mGlu2 receptor; [1]) | EC50 (rat mGlu3 receptor) | EC50 (rat mGlu2 receptor; [3])
1 | 1.55 µM | O=Cc1cc(-c2cccc(-c3csc(-c4ccccc4)n3)c2)ccc1F [Example 19, 4-Fluoro-3′-(2-phenylthiazol-4-yl)biphenyl-3-carbaldehyde] | 3.67 µM | > 10 µM | 
2 | > 10 µM | O=C(O)c1cccc(-c2cccc(-c3csc(-c4cccc(C(=O)O)c4)n3)c2)c1 [Example 33, 3-{4-[3-(3-Carboxyphenyl)phenyl]-1,3-thiazol-2-yl}benzoic acid] | 4.83 µM | > 10 µM | 
3 | 3.4 µM | O=C(O)c1ccc(F)c(-c2cccc(-c3csc(-c4ccccc4)n3)c2)c1 [Example 11, 6-Fluoro-3′-(2-phenylthiazol-4-yl)biphenyl-3-carboxylic Acid] | 1.59 µM | > 30 µM | 
4 | 3.71 µM | O=C(O)c1cc(-c2cccc(-c3nsc(-c4ccoc4)n3)c2)ccc1F [Example 42, 4-Fluoro-3′-(5-(furan-3-yl)-1,2,4-thiadiazol-3-yl)biphenyl-3-carboxylic Acid] | 3.63 µM | > 10 µM | 
5 |  | O=C1CC(c2ccnc(Br)c2)=Nc2ccc(-c3ccc(C(F)(F)F)cc3C(F)(F)F)cc2N1 [Example 194, 8-(2,4-Bis(trifluoromethyl)phenyl)-4-(2-bromopyridin-4-yl)-1,3-dihydro-2H-benzo[b][1,4]diazepin-2-one] | > 10 µM | > 10 µM | 3.47 µM
6 |  | O=C(O)c1ccccc1-c1cccc(-c2nc(-c3ccc(C(F)(F)F)nc3)cc(C(F)(F)F)n2)c1 [Example 72, 3′-(4-(Trifluoromethyl)-6-(6-(trifluoromethyl)pyridin-3-yl)pyrimidin-2-yl)biphenyl-2-carboxylic Acid] | > 10 µM | > 10 µM | > 10 µM
7 | 0.79 µM | O=C(O)c1cccc(-c2cccc(-c3noc(-c4ccccc4)n3)c2)c1 [Example 48, 3′-(5-Phenyl-1,2,4-oxadiazol-3-yl)-[1,1′-biphenyl]-3-carboxylic Acid] | 1.33 µM | > 10 µM | 
8 | > 10 µM | NS(=O)(=O)c1cccc(-c2cccc(-c3csc(-c4ccccc4)n3)c2)c1 [Example 2, 3′-(2-Phenylthiazol-4-yl)biphenyl-3-sulfonamide] | > 30 µM | > 30 µM | 
9 |  | CC(C)(C)c1ccc(-c2cc(C(F)(F)F)nc(-c3cccc(-c4ccc(F)c(C(=O)O)c4)c3)n2)cc1 [Example 96, 3′-(4-(4-tert-Butylphenyl)-6-(trifluoromethyl)pyrimidin-2-yl)-4-fluorobiphenyl-3-carboxylic Acid] | 5.38 µM | 6.11 µM | 1.08 µM
10 |  | O=C(O)c1cc(-c2cccc(-c3nc(-c4ccco4)cc(C(F)(F)F)n3)c2)ccc1F [Example 88, 4-Fluoro-3′-(4-(furan-2-yl)-6-(trifluoromethyl)pyrimidin-2-yl)biphenyl-3-carboxylic Acid] | 0.68 µM | 1.13 µM | 0.34 µM
11 | 1.1 µM | COc1ccc(-c2nc(-c3cccc(-c4cccc(C(=O)O)c4)c3)cs2)cc1OC [Example 29, 3-{3-[2-(3,4-Dimethoxyphenyl)-1,3-thiazol-4-yl]phenyl}benzoic acid] | 2.58 µM | 4.02 µM | 
12 |  | O=C(O)c1cccc(-c2cccc(-c3cn(-c4ccccc4)c(-c4ccccc4)n3)c2)c1 [Example 67, 3′-(1,2-Diphenyl-1H-imidazol-4-yl)-[1,1′-biphenyl]-3-carboxylic Acid] | > 10 µM | > 10 µM | > 10 µM
13 | 2.14 µM | COc1ccc(-c2cccc(-c3csc(-c4ccccc4)n3)c2)cc1C(=O)O [Example 12, 4-Methoxy-3′-(2-phenylthiazol-4-yl)-[1,1′-biphenyl]-3-carboxylic Acid] | 1.73 µM | 1.77 µM | 
14 | > 10 µM | O=C(O)c1ccc(F)c(-c2cccc(-c3nc(-c4ccccc4)n(-c4ccccc4)n3)c2)c1 [Example 63, 3′-(1,5-Diphenyl-1H-1,2,4-triazol-3-yl)-6-fluoro-[1,1′-biphenyl]-3-carboxylic acid] | > 10 µM | 4.45 µM | 
15 | > 10 µM | O=C(O)c1cccc(-c2cccc(-c3nc(-c4ccccc4)n(-c4ccccc4)n3)c2)c1 [Example 49A, 3′-(1,5-Diphenyl-1H-1,2,4-triazol-3-yl)-[1,1′-biphenyl]-3-carboxylic Acid] | > 10 µM | 1.36 µM | 
16 |  | O=C(O)c1cc(-c2cccc(Sc3nc(-c4ccco4)cc(C(F)(F)F)n3)c2)ccc1F [Example 129, 4-Fluoro-3′-(4-(furan-2-yl)-6-(trifluoromethyl)pyrimidin-2-ylthio)biphenyl-3-carboxylic Acid] | > 10 µM | > 10 µM | 3.25 µM
17 |  | O=C1CC(c2ccnc(Cl)c2)=Nc2ccc(-c3cc(F)cc(F)c3)cc2N1 [Example 190, 4-(2-Chloropyridin-4-yl)-8-(3,5-difluorophenyl)-1,3-dihydro-2H-benzo[b][1,4]diazepin-2-one] | > 10 µM | > 10 µM | 
18 |  | O=C(O)c1cc(-c2cccc(-c3nc(-c4cc5ccccc5o4)cc(C(F)(F)F)n3)c2)ccc1F [Example 101, 3′-(4-(Benzofuran-2-yl)-6-(trifluoromethyl)pyrimidin-2-yl)-4-fluorobiphenyl-3-carboxylic Acid] | > 10 µM | > 10 µM | 0.95 µM
19 |  | COc1ccc(-c2cccc(-c3nc(-c4ccco4)cc(C(F)(F)F)n3)c2)cc1C(=O)O [Example 90, 3′-(4-(Furan-2-yl)-6-(trifluoromethyl)pyrimidin-2-yl)-4-methoxybiphenyl-3-carboxylic Acid] | 3.68 µM | > 10 µM | 2.49 µM
20 |  | Cc1cc2c(cc1C(F)(F)F)NC(=O)CC(c1cccc(Oc3cccc(Br)c3)c1)=N2 [Example 145, 4-(3-(3-Bromophenoxy)phenyl)-7-methyl-8-(trifluoromethyl)-1H-benzo[b][1,4]diazepin-2(3H)-one] | > 10 µM | > 10 µM | > 10 µM
21 | 4.98 µM | O=C(O)c1cccc(-c2cccc(-c3csc(-c4ccc5ccccc5c4)n3)c2)c1 [Example 32, 3-[3-(2-(2-Naphthyl)-1,3-thiazol-4-yl)phenyl]benzoic acid] | > 10 µM | > 30 µM | 
22 |  | c1ccc(-c2nc(-c3cccc(-c4cccc(-c5nn[nH]n5)c4)c3)cs2)cc1 [Example 37, 4-(3′-(2H-Tetrazol-5-yl)biphenyl-3-yl)-2-phenylthiazole] | 2.98 µM | > 10 µM | 1.72 µM
23 | 0.67 µM | COc1ccc(-c2nc(-c3cccc(-c4cccc(C(=O)O)c4)c3)cs2)cc1 [Example 31, 3-{3-[2-(4-Methoxyphenyl)-1,3-thiazol-4-yl]phenyl}benzoic acid] | 1.23 µM | 3.09 µM | 
24 |  | O=C(O)c1cc(-c2ccc(-c3nc(-c4ccc(C(F)(F)F)nc4)cc(C(F)(F)F)n3)cc2)ccc1Cl [Example 83, 4-Chloro-4′-(4-(trifluoromethyl)-6-(6-(trifluoromethyl)pyridin-3-yl)pyrimidin-2-yl)biphenyl-3-carboxylic Acid] | 2.95 µM | > 10 µM | 1.23 µM
25 |  | N#Cc1cc(C2=Nc3ccc(I)cc3NC(=O)C2)ccn1 [Example 183, 4-(8-Iodo-2-oxo-2,3-dihydro-1H-benzo[b][1,4]diazepin-4-yl)picolinonitrile] | 0.11 µM | 0.07 µM | 0.03 µM
26 |  | O=C(O)c1cc(-c2cccc(-c3nc(-c4cc(C(F)(F)F)cc(C(F)(F)F)c4)cc(C(F)(F)F)n3)c2)ccc1F [Example 105, 3′-(4-(3,5-Bis(trifluoromethyl)phenyl)-6-(trifluoromethyl)pyrimidin-2-yl)-4-fluorobiphenyl-3-carboxylic Acid] | > 10 µM | > 10 µM | 3.19 µM
27 |  | O=C1CC(c2ccnc(Cl)c2)=Nc2ccc(-c3cccnc3F)cc2N1 [Example 188, 4-(2-Chloropyridin-4-yl)-8-(2-fluoropyridin-3-yl)-1,3-dihydro-2H-benzo[b][1,4]diazepin-2-one] | > 10 µM | 1.7 µM | 
28 |  | O=C1CC(c2ccnc(-c3ccccc3F)c2)=Nc2ccc(C(F)(F)F)cc2N1 [Example 200, 4-(2-(2-Fluorophenyl)pyridin-4-yl)-8-(trifluoromethyl)-1,3-dihydro-2H-benzo[b][1,4]diazepin-2-one] | > 10 µM | 0.75 µM | 0.22 µM
29 |  | O=C1CC(c2ccnc(Cl)c2)=Nc2ccc(C(F)(F)F)cc2N1 [Example 189, 4-(2-Chloropyridin-4-yl)-8-(trifluoromethyl)-1,3-dihydro-2H-benzo[b][1,4]diazepin-2-one] | 0.29 µM | 0.28 µM | 0.08 µM
30 | > 10 µM | O=C(O)c1cc(-c2cccc(-c3csc(-c4ccco4)n3)c2)ccc1F [Example 7, 4-Fluoro-3′-(2-(furan-2-yl)thiazol-4-yl)biphenyl-3-carboxylic Acid] | 2.4 µM | > 10 µM | 

Row | Structure (SMILES) | EC50 (rat mGlu2 receptor; [2]) | EC50 (rat mGlu2 receptor; [1]) | EC50 (rat mGlu3 receptor) | EC50 (rat mGlu2 receptor; [3])
31 | O=C(O)c1cccc(-c2cccc(-c3coc(-c4ccccc4)n3)c2)c1 [Example 47, 3′-(2-Phenyloxazol-4-yl)-[1,1′-biphenyl]-3-carboxylic Acid] | > 10 µM | > 10 µM | > 30 µM | 
32 | Cc1cc(-c2ccoc2)nc(-c2cccc(-c3cc(F)cc(C(=O)O)c3)c2)n1 [Example 121, 5-Fluoro-3′-(4-(furan-3-yl)-6-methylpyrimidin-2-yl)-[1,1′-biphenyl]-3-carboxylic Acid] | 0.31 µM | 0.35 µM | 2.21 µM | 

Source: patent US9969726B2, “Metabotropic glutamate receptor negative allosteric modulators (NAMS) and uses thereof” (Sanford-Burnham Medical Research Institute, priority 2014, dated 2018)
